# Laboratory results published in US9670227B2, “Thienopyrimidine derivatives, a process for their preparation and pharmaceutical compositions containing them” (LES LABORATOIRES SERVIER, priority 2013, dated 2017).
# Target: Mcl-1 protein (UniProtKB primary accession number: Q07820) (Homo sapiens, UniProt Q07820)
# Assay: Inhibition of Mcl-1 by fluorescence polarisation, Method 1
# Type: binding
# Conditions: fluorescence polarisation; Method 1, or Method 2; read-out: IC50 (M) Mcl-1 FP
# In short: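 An 11-point DMSO dilution of compound is mixed with buffer (10 mM HEPES, 150 mM NaCl, 0.05% Tween 20, pH 7.4) carrying 1 nM fluorescein-labelled ligand and 5 nM Mcl-1, final concentrations. Displacement is monitored by fluorescence polarisation.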
# Chain of Mcl-1 protein (Q07820 whole entry): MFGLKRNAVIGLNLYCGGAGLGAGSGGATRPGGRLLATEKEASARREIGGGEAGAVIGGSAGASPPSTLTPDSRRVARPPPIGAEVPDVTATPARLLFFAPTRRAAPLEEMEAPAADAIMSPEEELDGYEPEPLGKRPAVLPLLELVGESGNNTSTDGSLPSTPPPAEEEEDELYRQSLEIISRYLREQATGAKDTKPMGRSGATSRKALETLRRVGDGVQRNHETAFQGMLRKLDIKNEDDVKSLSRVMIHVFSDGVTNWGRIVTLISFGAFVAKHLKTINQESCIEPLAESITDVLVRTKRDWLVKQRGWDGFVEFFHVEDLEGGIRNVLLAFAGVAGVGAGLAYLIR
row,Compound,IC50 [M]
1,"Cc1c(-c2c(-c3ccc(F)cc3)sc3ncnc(OC(Cc4ccccc4OCC4CCCO4)C(=O)O)c23)ccc(OCCN2CCN(CCCCN)CC2)c1Cl [Example 645, (2R)-2-{[(5Sa)-5-(4-{2-[4-(4-aminobutyl)piperazin-1-yl]ethoxy}-3-chloro-2-methylphenyl)-6-(4-fluorophenyl)thieno[2,3-d]pyrimidin-4-yl]oxy}-3-{2-[(2R)-tetrahydrofuran-2-ylmethoxy]phenyl}propanoic acid]",2.2e-08
2,"Cc1c(-c2c(-c3ccc(F)cc3)sc3ncnc(OC(Cc4ccccc4OCC4CCCO4)C(=O)O)c23)ccc(OCCN2CCOCC2)c1Cl [Example 648, (2R)-2-{[(5Sa)-5-{3-chloro-2-methyl-4-[2-(morpholin-4-yl)ethoxy]phenyl}-6-(4-fluorophenyl)thieno[2,3-d]pyrimidin-4-yl]oxy}-3-{2-[(2R)-tetrahydrofuran-2-ylmethoxy]phenyl}propanoic acid]",1.4e-08
3,"COCCCc1ccccc1CC(Oc1ncnc2sc(-c3ccc(F)cc3)c(-c3ccc(OCCN4CCN(C)CC4)c(Cl)c3C)c12)C(=O)O [Example 655, (2R)-2-{[(5Sa)-5-{3-chloro-2-methyl-4-[2-(4-methylpiperazin-1-yl)ethoxy]phenyl}-6-(4-fluorophenyl)thieno[2,3-d]pyrimidin-4-yl]oxy}-3-[2-(3-methoxypropyl)phenyl]propanoic acid]",2.6e-08
4,"Cc1c(-c2c(-c3ccc(F)cc3)sc3ncnc(OC(Cc4ccccc4OCC(F)(F)F)C(=O)O)c23)ccc(OCCN2CCOCC2)c1Cl [Example 657, (2R)-2-{[(5Sa)-5-{3-chloro-2-methyl-4-[2-(morpholin-4-yl)ethoxy]phenyl}-6-(4-fluorophenyl)thieno[2,3-d]pyrimidin-4-yl]oxy}-3-[2-(2,2,2-trifluoroethoxy)phenyl]propanoic acid]",2.1e-08
5,"COc1ccc(-c2c(-c3ccc(F)cc3)sc3ncnc(OC(Cc4ccccc4OCc4ccnc(N(C)C)n4)C(=O)O)c23)c(C)c1Cl [Example 660, (2R)-2-{[(5Sa)-5-(3-chloro-4-methoxy-2-methylphenyl)-6-(4-fluorophenyl)thieno[2,3-d]pyrimidin-4-yl]oxy}-3-(2-{[2-(dimethylamino)pyrimidin-4-yl]methoxy}phenyl)propanoic acid]",5.1e-08
6,"COc1ccc(-c2c(-c3ccc(F)cc3)sc3ncnc(OC(Cc4ccccc4OCCN4CCN(C)CC4)C(=O)O)c23)c(C)c1Cl [Example 661, (2R)-2-{[(5Sa)-5-(3-chloro-4-methoxy-2-methylphenyl)-6-(4-fluorophenyl)thieno[2,3-d]pyrimidin-4-yl]oxy}-3-{2-[2-(4-methylpiperazin-1-yl)ethoxy]phenyl}propanoic acid]",1e-07
7,"COc1ccc(-c2c(-c3ccc(F)cc3)sc3ncnc(OC(Cc4ccccc4OCCN(C)C)C(=O)O)c23)c(C)c1Cl [Example 662, (2R)-2-{[(5Sa)-5-(3-chloro-4-methoxy-2-methylphenyl)-6-(4-fluorophenyl)thieno[2,3-d]pyrimidin-4-yl]oxy}-3-{2-[2-(dimethylamino)ethoxy]phenyl}propanoic acid]",2.7e-07
8,"COc1ccc(-c2c(-c3ccc(F)cc3)sc3ncnc(OC(Cc4ccccc4OCc4ccnn4CCN(C)C)C(=O)O)c23)c(C)c1Cl [Example 663, (2R)-2-{[(5Sa)-5-(3-chloro-4-methoxy-2-methylphenyl)-6-(4-fluorophenyl)thieno[2,3-d]pyrimidin-4-yl]oxy}-3-[2-({1-[2-(dimethylamino)ethyl]-1H-pyrazol-5-yl}methoxy)phenyl]propanoic acid]",2.5e-08
9,"Cc1c(Cl)cccc1-c1c(-c2ccco2)sc2ncnc(OC(Cc3ccccc3OCCN3CCN(C)CC3)C(=O)O)c12 [Example 666, (2R)-2-{[(5Sa)-5-(3-chloro-2-methylphenyl)-6-(furan-2-yl)thieno[2,3-d]pyrimidin-4-yl]oxy}-3-{2-[2-(4-methylpiperazin-1-yl)ethoxy]phenyl}propanoic acid]",7.7e-08
10,"Cc1c(Cl)cccc1-c1c(-c2ccco2)sc2ncnc(OC(Cc3ccccc3OCCN3CCN(C)CC3)C(=O)O)c12 [Example 667, (2S)-2-{[(5Ra)-5-(3-chloro-2-methylphenyl)-6-(furan-2-yl)thieno[2,3-d]pyrimidin-4-yl]oxy}-3-{2-[2-(4-methylpiperazin-1-yl)ethoxy]phenyl}propanoic acid]",2.1e-06
11,"Cc1c(-c2c(-c3ccco3)sc3ncnc(OC(Cc4ccccc4OCc4ccccn4)C(=O)O)c23)ccc(O)c1Cl [Example 674, (2R)-2-{[(5Sa)-5-(3-chloro-4-hydroxy-2-methylphenyl)-6-(furan-2-yl)thieno[2,3-d]pyrimidin-4-yl]oxy}-3-[2-(pyridin-2-ylmethoxy)phenyl]propanoic acid]",2.1e-08
12,"CC#Cc1sc2ncnc(OC(Cc3ccccc3OC)C(=O)O)c2c1-c1ccc(OCCN2CCOCC2)c(Cl)c1C [Example 685, (2R)-2-{[(5Sa)-5-{3-chloro-2-methyl-4-[2-(morpholin-4-yl)ethoxy]phenyl}-6-(prop-1-yn-1-yl)thieno[2,3-d]pyrimidin-4-yl]oxy}-3-(2-methoxyphenyl)propanoic acid]",1.2e-08
13,"CC#Cc1sc2ncnc(O[C@H](Cc3ccccc3OC)C(=O)O)c2c1-c1ccc(OCCN2CCN(C)CC2)c(F)c1C [Example 686, (2R)-2-{[(5Ra)-5-{3-fluoro-2-methyl-4-[2-(4-methylpiperazin-1-yl)ethoxy]phenyl}-6-(prop-1-yn-1-yl)thieno[2,3-d]pyrimidin-4-yl]oxy}-3-(2-methoxyphenyl)propanoic acid]",1e-06
14,"COc1nccc(COc2ccccc2CC(Oc2ncnc3sc(-c4ccc(F)c(OCCN5CCN(C)CC5)c4)c(-c4ccc(OC)c(Cl)c4C)c23)C(=O)O)n1 [Example 698, (2R)-2-{[(5Sa)-5-(3-chloro-4-methoxy-2-methylphenyl)-6-{4-fluoro-3-[2-(4-methylpiperazin-1-yl)ethoxy]phenyl}thieno[2,3-d]pyrimidin-4-yl]oxy}-3-{2-[(2-methoxypyrimidin-4-yl)methoxy]phenyl}propanoic acid]",7.3e-09
15,"COc1nccc(COc2ccccc2CC(Oc2ncnc3sc(-c4ccc(F)c(OCCN5CCOCC5)c4)c(-c4ccc(OC)c(Cl)c4C)c23)C(=O)O)n1 [Example 700, (2R)-2-{[(5Sa)-5-(3-chloro-4-methoxy-2-methylphenyl)-6-{4-fluoro-3-[2-(morpholin-4-yl)ethoxy]phenyl}thieno[2,3-d]pyrimidin-4-yl]oxy}-3-{2-[(2-methoxypyrimidin-4-yl)methoxy]phenyl}propanoic acid]",1.2e-08
16,"COc1nccc(COc2ccccc2CC(Oc2ncnc3sc(-c4ccc(F)c(OCCN(C)C)c4)c(-c4ccc(OC)c(Cl)c4C)c23)C(=O)O)n1 [Example 702, (2R)-2-{[(5Sa)-5-(3-chloro-4-methoxy-2-methylphenyl)-6-{3-[2-(dimethylamino)ethoxy]-4-fluorophenyl}thieno[2,3-d]pyrimidin-4-yl]oxy}-3-{2-[(2-methoxypyrimidin-4-yl)methoxy]phenyl}propanoic acid]",9.4e-09
17,"Cc1c(-c2c(-c3cnn(C)c3)sc3ncnc(OC(Cc4ccccc4)C(=O)O)c23)ccc(OCCN2CCOCC2)c1Cl [Example 712, (2R)-2-{[(5Sa)-5-{3-chloro-2-methyl-4-[2-(morpholin-4-yl)ethoxy]phenyl}-6-(1-methyl-1H-pyrazol-4-yl)thieno[2,3-d]pyrimidin-4-yl]oxy}-3-phenylpropanoic acid]",4.1e-07
18,"COc1ccccc1CC(Oc1ncnc2sc(-c3cccc(OCCN4CCN(C)CC4)c3)c(-c3ccc(OC)c(Cl)c3C)c12)C(=O)O [Example 713, (2R)-2-{[(5Sa)-5-(3-chloro-4-methoxy-2-methylphenyl)-6-{3-[2-(4-methylpiperazin-1-yl)ethoxy]phenyl}thieno[2,3-d]pyrimidin-4-yl]oxy}-3-(2-methoxyphenyl)propanoic acid]",1.6e-08

# Same assay, conditions: partial inhibitors; @ 1 uM test compound
row,Compound,"percentage fluorescence polarisation inhibition, Mcl-1 FP [% @ 1 uM]"
1,"COc1nccc(COc2ccccc2C[C@@H](Oc2ncnc3sc(-c4ccc(F)c(OCCN5CCN(C)CC5)c4)c(-c4ccc(OC)c(Cl)c4C)c23)C(=O)O)n1 [Example 697, (2R)-2-{[(5Ra)-5-(3-chloro-4-methoxy-2-methylphenyl)-6-{4-fluoro-3-[2-(4-methylpiperazin-1-yl)ethoxy]phenyl}thieno[2,3-d]pyrimidin-4-yl]oxy}-3-{2-[(2-methoxypyrimidin-4-yl)methoxy]phenyl}propanoic acid]",45.55
2,"COc1nccc(COc2ccccc2C[C@@H](Oc2ncnc3sc(-c4ccc(F)c(OCCN5CCOCC5)c4)c(-c4ccc(OC)c(Cl)c4C)c23)C(=O)O)n1 [Example 699, (2R)-2-{[(5Ra)-5-(3-chloro-4-methoxy-2-methylphenyl)-6-{4-fluoro-3-[2-(morpholin-4-yl)ethoxy]phenyl}thieno[2,3-d]pyrimidin-4-yl]oxy}-3-{2-[(2-methoxypyrimidin-4-yl)methoxy]phenyl}propanoic acid]",28.5
3,"COc1nccc(COc2ccccc2C[C@@H](Oc2ncnc3sc(-c4ccc(F)c(OCCN(C)C)c4)c(-c4ccc(OC)c(Cl)c4C)c23)C(=O)O)n1 [Example 701, (2R)-2-{[(5Ra)-5-(3-chloro-4-methoxy-2-methylphenyl)-6-{3-[2-(dimethylamino)ethoxy]-4-fluorophenyl}thieno[2,3-d]pyrimidin-4-yl]oxy}-3-{2-[(2-methoxypyrimidin-4-yl)methoxy]phenyl}propanoic acid]",40.75

# Same assay, conditions: partial inhibitors; @ 10 uM test compound
row,Compound,"percentage fluorescence polarisation inhibition, Mcl-1 FP [% @ 10 uM]"
1,"CCOC(=O)[C@@H](Cc1ccccc1OC)Oc1ncnc2sc(-c3ccc(F)cc3)c(-c3ccc(OCCN4CCN(C)CC4)c(Cl)c3C)c12 [Example 642, ethyl (2R)-2-{[(5Sa)-5-{3-chloro-2-methyl-4-[2-(4-methylpiperazin-1-yl)ethoxy]phenyl}-6-(4-fluorophenyl)thieno[2,3-d]pyrimidin-4-yl]oxy}-3-(2-methoxyphenyl)propanoate]",11
